Assay results published in patent US20220184071A1, “GEPOTIDACIN FOR USE IN THE TREATMENT OF BACTERIAL URINARY TRACT INFECTIONS” (GlaxoSmithKline Intellectual Property Development Limited, priority 2019, published 2022).
≈ marks a conversion by molar mass, not a printed value. Entries after “also recorded” stand apart in the source; their conditions may differ.

What was measured:
[1] = tested on: Staphylococcus saprophyticus; assay: MIC by CLSI broth microdilution, Example 1 Method 1; assay type: cell-based
Method: Unless otherwise stated, the Clinical and Laboratory Standards Institute (CLSI) recommended procedure is as set out in the edition of CLSI Approved Standard […]. Methods for Dilution Antimicrobial Susceptibility Tests for Bacteria That Grow Aerobically” at the time of testing. Antimicrobial activity was determined by broth microdilution using the CLSI recommended procedure. Gepotidacin was tested in serial two-fold dilutions and the minimum inhibitory concentration (MIC) was determined as the lowest concentration of the compound that inhibited visible growth. Gepotidacin was tested against 28 strains of Staphylococcus saprophyticus collected from multiple hospitals. Amoxicillin, azithromycin, levofloxacin and cefuroxime were included as comparators. MICs for gepotidacin and comparators were determined by broth microdilution according to CLSI methods.

[2] = MIC, conclusion to Example 1 Methods 1 and 2; assay type: cell-based; conditions: at least one strain of every organism listed
Method: Antimicrobial activity was determined by broth microdilution using the CLSI recommended procedure.
Antimicrobial activity was determined in a second study by […] using the CLSI recommended procedure in serial two-fold dilutions and the minimum inhibitory concentration (MIC) was determined as the lowest concentration of the compound that inhibited visible growth.

[3] = Phase IIa clinical efficacy (ITT population); assay type: in vivo, human
Method: (§1) This phase IIa single center study evaluated the safety, tolerability, pharmacokinetics, and efficacy of oral gepotidacin 1500 mg BID for 5 days in female subjects with acute cystitis. Clean catch mid-stream urine specimens were obtained for quantitative culture by standard methods. Urine samples were taken from all participants pre-treatment (baseline) and at all post-baseline visits. All urine samples were sent to a central laboratory (PPD Global Clinical Laboratories, Highland Heights, Ky., USA) for Gram stain, quantitative culture, pathogen identification and susceptibility testing. See FIG. 1 for participant disposition and study outline.
(§2) Serial blood and urine PK sampling were performed for the first dose of study treatment on Day 1 and for the time-matched dose on Day 4. Participants took all doses of gepotidacin with food and remained in the clinic to complete a total of 10 doses. Participants were instructed to return for the TOC (Day 10 to 13) and Follow-up (Day 28±3) Visits.
The mean total clinical symptom score in the ITT Population at Baseline was 7.9 (range: 4 to 12) for 4 categories of acute cystitis symptoms consisting of dysuria, frequency, urgency, and lower abdominal or suprapubic pain (score range for each category was 0 to 3). Of the 22 participants enrolled in this Phase IIa study, 19 (86%) and 18 participants (82%) achieved a clinical response of clinical success at the TOC and Follow-up Visits, respectively. […] Lower abdominal or suprapubic pain at Baseline was the most variable symptom category with half of the participants reporting low scores of 0 (27%) or 1 (23%) and the other half of participants reporting high scores of 2 (41%) or 3 (9%). For the other symptom categories, the majority of participants scored a 2.

[4] = Phase IIa safety and tolerability; assay type: in vivo, human
Method: as §1, §2

Morganella morganii = assay: MIC, Example 5 Method 1; assay type: cell-based; conditions: at least one isolate tested
Providencia rettgeri = assay: MIC, Example 5 Method 1; assay type: cell-based; conditions: at least one isolate tested
S. anginosus = assay: MIC by CLSI broth microdilution, Example 5 second study; assay type: cell-based; conditions: Streptococcus anginosus; 10 isolates, 2013-2014
Description: (§3) A second study tested gepotidacin by CLSI broth microdilution against bacterial isolates collected from patients with acute bacterial skin and soft tissue infections between 2013-2014. Amoxicillin/clavulanic acid, linezolid, fusidic acid, ceftriaxone, ceftaroline, vancomycin, penicillin, quinupristin/dalfopristin, erythromycin, clindamycin, meropenem, tetracycline, chloramphenicol, flucloxacillin, telavancin, daptomycin, trimethoprim/sulfamethoxazole, gentamicin, levofloxacin, tigecycline and cefuroxime were included as comparators. MICs were determined by broth microdilution according to CLSI methods.

viridans streptococci = assay: as above; assay type: cell-based; conditions: 19 isolates, 2013-2014
Description: as §3

Acidovorax temperans = assay: MIC by CLSI broth microdilution, isolates from UTI patients (Example 7); assay type: cell-based; conditions: n=1
Method: (§4) Gepotidacin was tested against the following organisms obtained from UTI patients, in serial two-fold dilutions. The minimum inhibitory concentration (MIC) was determined by broth microdilution according to CLSI methods.

Citrobacter amalonaticus = assay: as above; assay type: cell-based; conditions: n=1
Method: as §4

Providencia stuartii = assay: as above; assay type: cell-based; conditions: n=1
Method: as §4

## O=c1ccc2ncc(=O)n3c2n1C[C@H]3CN1CCC(NCc2cc3c(cn2)OCCC3)CC1 [gepotidacin, (2R)-2-({4-[(3,4-dihydro-2H-pyrano[2,3-c]pyridin-6-ylmethyl)amino]-1-piperidinyl}methyl)-1,2-dihydro-3H,8H-2a,5,8a-triazaacenaphthylene-3,8-dione]
[1]; 28 isolates
  MIC90: 0.125 µg/mL (≈ 0.279 µM)
[1]; conclusion to Methods 1 and 2
  MIC90: 0.12 µg/mL (≈ 0.268 µM)
[2]
  MIC: ≤ 8 µg/mL
[3]; TOC Visit, 22 participants
  participants with clinical response of clinical success: 19 (86%)
[3]; at Follow-up
  participants with symptom resolution: 20 participants
[3]; at TOC
  participants with symptom resolution (clinical signs and symptom score of 0): 19 participants
[3]; dysuria, frequency, urgency, lower abdominal pain
  time to significant improvement of clinical symptoms (all subjects): 24 to 48 h
[4]; N = 22
  Back pain, n (%): 2 (9)
  Chest discomfort, n (%): 2 (9)
  Gastrointestinal disorders, n (%): 21 (95)
  General disorders and administration site conditions, n (%): 2 (9)
  Headache, n (%): 5 (23)
  Infections and infestations, n (%): 6 (27)
  Nervous system disorders, n (%): 5 (23)
  Viral upper respiratory tract infection, n (%): 2 (9)
  Vomiting, n (%): 5 (23)
  Vulvovaginal mycotic infection, n (%): 2 (9)
[4]; N = 22, 1500 mg BID 5 days
  Any adverse event, n (%): 21 (95)
[4]; female, human, in vivo, 5 days
  Musculoskeletal and connective tissue disorders, n (%): 3 (14)
[4]; in vivo
  safety laboratory parameters, vital signs, ECG: no clinically relevant trends; also recorded: no clinically significant changes
  withdrawals or study treatment discontinuations due to AEs: No withdrawal due to AE; also recorded: no withdrawals or study treatment discontinuations due to AEs
[4]; mild or moderate, not treatment limiting
  Episodes of vomiting considered drug related: 4 participants
[4]; onset at day 1, improving upon repeat dosing
  intensity of GI AEs: mild or moderate
[4]; oral 1500 mg BID for 5 days
  tolerability: tolerated with no dose-limiting AEs
Morganella morganii
  MIC: 4 µg/mL (≈ 8.92 µM)
Providencia rettgeri
  MIC: 8 µg/mL (≈ 17.8 µM)
S. anginosus
  MIC90: 1 µg/mL (≈ 2.23 µM)
Viridans streptococci
  MIC90: 0.5 µg/mL (≈ 1.11 µM)
Acidovorax temperans
  MIC: 1 µg/mL (≈ 2.23 µM)
Citrobacter amalonaticus
  MIC: 2 µg/mL (≈ 4.46 µM)
Providencia stuartii
  MIC: 32 µg/mL (≈ 71.3 µM)
